{
  "source": "the supplement of paper PMC10307832",
  "test_in_all_cases": "relative viability (nuclei count vs DMSO), 5 days (fraction); higher = more cells survive",
  "key": {"[1]": {"compound": "C[C@@H](N)c1ccc(C(=O)Nc2ccnc3[nH]ccc23)cc1 + CC1(C)CCC(c2ccc(Cl)cc2)=C(CN2CCN(c3ccc(C(=O)NS(=O)(=O)c4ccc(N[C@H](CCN5CCOCC5)CSc5ccccc5)c(S(=O)(=O)C(F)(F)F)c4)cc3)CC2)C1 [Navitoclax] (partner 0.5 µM)", "outline": "(§1)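 Lung cancer cell lines, seeded in 1536-well plates, were treated the following day by pin tool with a single drug or with five library-drug doses (not always all listed) in √10 steps on top of a fixed anchor-drug dose. Cells were fixed and nuclei stained in one step after 5 days, and nuclei were counted. Relative viability is the nuclei count for treated wells divided by that for vehicle wells, reported as medians of duplicate plates.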"}, "[2]": {"compound": "C1CNCCC1C2=CC(=NN2)C3=CC=NC=C3 + C[C@]1(O)C[C@@H](c2nc(-c3ccc4ccc(-c5ccccc5)nc4c3)c3c(N)nccn32)C1 [Linsitinib] (partner 1 µM)", "outline": "as §1"}, "[3]": {"compound": "C[C@@H](N)c1ccc(C(=O)Nc2ccnc3[nH]ccc23)cc1 + C[C@@H](Oc1cc(-c2cnn(C3CCNCC3)c2)cnc1N)c1c(Cl)ccc(F)c1Cl [Crizotinib] (partner 1 µM)", "outline": "as §1"}, "[4]": {"compound": "C[C@@H](N)c1ccc(C(=O)Nc2ccnc3[nH]ccc23)cc1 + COc1cccc2cc(-c3nc([C@H]4CC[C@H](C(=O)O)CC4)n4ncnc(N)c34)[nH]c12 [OSI-027] (partner 0.5 µM)", "outline": "as §1"}},
  "data": [
    {"cell line": "UMC-11", "values": [
      {"measurement": "relative viability", "setting": "[1]; first compound 0.04 µM", "value": 0.318},
      {"measurement": "relative viability", "setting": "[1]; first compound 0.1265 µM", "value": 0.323},
      {"measurement": "relative viability", "setting": "[1]; first compound 0.4 µM", "value": 0.332},
      {"measurement": "relative viability", "setting": "[1]; first compound 1.265 µM", "value": 0.27},
      {"measurement": "relative viability", "setting": "[1]; first compound 4 µM", "value": 0.211},
      {"measurement": "relative viability", "setting": "[2]; first compound 0.08 µM", "value": 0.987},
      {"measurement": "relative viability", "setting": "[2]; first compound 0.8 µM", "value": 1.08},
      {"measurement": "relative viability", "setting": "[2]; first compound 2.53 µM", "value": 1.17},
      {"measurement": "relative viability", "setting": "[2]; first compound 8 µM", "value": 0.982},
      {"measurement": "relative viability", "setting": "[3]; first compound 0.04 µM", "value": 0.714},
      {"measurement": "relative viability", "setting": "[3]; first compound 0.1265 µM", "value": 0.615},
      {"measurement": "relative viability", "setting": "[3]; first compound 0.4 µM", "value": 0.79},
      {"measurement": "relative viability", "setting": "[3]; first compound 1.265 µM", "value": 0.749},
      {"measurement": "relative viability", "setting": "[3]; first compound 4 µM", "value": 0.346},
      {"measurement": "relative viability", "setting": "[4]; first compound 0.04 µM", "value": 0.583},
      {"measurement": "relative viability", "setting": "[4]; first compound 0.1265 µM", "value": 0.565},
      {"measurement": "relative viability", "setting": "[4]; first compound 0.4 µM", "value": 0.555},
      {"measurement": "relative viability", "setting": "[4]; first compound 1.265 µM", "value": 0.453},
      {"measurement": "relative viability", "setting": "[4]; first compound 4 µM", "value": 0.459}
    ]}
  ]
}
